Patent publication US20220143116A1 (priority 2019, published 2022)
Where “and” joins values, the source holds several entries; their conditions need not be identical. Identical values can stand only once.

What was measured:
B16TK cells = format: cell-based, murine
[1] = system: B16TK (scrambled shRNA) or B16TK (shRNA APOBEC3) tumors; design: species or system C57Bl/6 mice; details: mouse, in vivo
B16TK-hAPOBEC3B tumors = system: B16TK-hAPOBEC3B tumors; design: species or system C57BL/6 mice; details: mouse, in vivo
[2] = system: B16TK-hAPOBEC3B subcutaneous tumors; design: species or system C57BL/6 mice; details: mouse, in vivo

Nc1nc(O)c2ncn(COC(CO)CO)c2n1 [ganciclovir]
sensitivity of B16TK cells to treatment (B16TK cells): sensitive | long term survivors [1]: 0/7 and 4/7 | tumor growth following GCV treatment (B16TK-hAPOBEC3B tumors): grew significantly more quickly | tumor growth following GCV treatment [2]: grew significantly more quickly
